Read-outs that look alike come from different tables or passages of the source.
Key:
[1] = tested on: 4T1 breast tumors
Protocol: The 4T1 breast cancer cells (3×10^5) were implanted subcutaneously in the flanks of 4-wk-old BALB/c mice. […] PBS (100 μL) by tail-vain injection was used as a control for drug treatment. Treatment was started on day 9 postimplantation, and administered every alternate day till day 13. The tumor volumes and body weights were monitored on a daily basis. The tumor volume was calculated by using the formula, L×B^2.
(§1) The tissues were fixed in 10% formalin, paraffin-embedded, and sectioned at the Harvard Medical School Core Facility. Tumor and kidney paraffin sections were deparaffinized and stained with a standard TMR red fluorescent TUNEL kit following the manufacturer's protocol (In Situ Cell Death Detection Kit™, TMR-Red; Roche). The kidney sections were also immunolabeled for KIM1 expression. Images were obtained using a Nikon Eclipse TE2000™ fluorescence microscope equipped with red filter.
The 4T1 breast cancer cells (3×105) were implanted subcutaneously in the flanks of 4-wk-old BALB/c mice (weighing 20 g; Charles River Laboratories). The drug therapy was started on day 9. […] PBS (100 μL) administered by tail-vain injection was used as a control for drug treatment. The tumor volumes and body weights were monitored on a daily basis. The tumor volume was calculated by using the formula, L×B2, where the longest diameter was considered as L and the shortest diameter as measured using a vernier caliper as B. The animals were killed when the average tumor volume of the control exceeded 2,000 mm3 in the control group. The tumors were harvested immediately following sacrifice and stored in 10% formalin for further analysis. All animal procedures were approved by the Harvard Institutional Use and Care of Animals Committee.
as §1, with “with” for “with a”, “Roche).” for “Roche). The kidney sections were also immunolabeled for KIM1 expression.”, “TE2000” for “TE2000™”

[2] = tested on: 4T1 breast cancer cell line; test: Cell viability assay (MTS), platinates; type: cell-based, murine; details: 48 h
Protocol: (§2) The LLC cells, breast cancer cell line (4T1), and hepatocellular carcinoma cells (CP20) were seeded into 96-well flat bottomed plates (4×10^3 cells per well). Drugs or SACNs were added at equivalent Pt concentrations and incubated for 48 h. Viability was quantified using the Cell-Titer 96 Aqueous One Solution™ reagent. Cellular apoptosis was quantified using Annexin-V-Alexa Fluor™ 488 conjugate and propidium iodide staining followed by FACS.
(§3) The Lewis lung carcinoma (LLC) cells, breast cancer cell line (4T1), and hepatocellular carcinoma cells (CP20) were purchased from American Type Culture Collection. LLC cells and CP20 cells were cultured in DMEM and 4T1 cells were cultured in RPMI medium 1640-supplemented with 10% FBS, 50 unit/mL penicillin, and 50 unit/mL streptomycin. Trypsinized cultured LLC, 4T1, and CP20 cells were washed twice with PBS and seeded into 96-well flat-bottomed plates (4×10^3 cells per well). Free drugs and SACNs were added at appropriate concentrations (0.01, 0.1, 1, 10, 20, 50 μM Pt concentration). […] After 2 h incubation in 5% CO2 atmosphere at 37° C., the absorbance in each well was recorded at 490 nm using an Epoch (BioTek™) plate reader. Results were quantified by subtracting the blank value from each value then normalizing against the control values and results were analyzed by using Prism™ software (GraphPad). […]

[3] = tested on: Lewis lung carcinoma (LLC) cells; test: Cell viability assay (MTS), platinates; type: cell-based; details: 48 h
Protocol: as §2, §3

[4] = tested on: K-Ras^LSL/+/Pten^fl/fl ovarian cancer; test: In vivo K-ras^LSL/+/Pten^fl/fl ovarian cancer model, platinates; set-up: species or system mice; details: Pt dose equivalent to 3 mg/kg of cisplatin
[5] = Maximum tolerated dose (20% body weight loss); type: in vivo, BALB/c mice
[6] = tested on: 4T1 cells; test: FACS analysis of apoptosis (Annexin-V/PI); type: cell-based, murine; details: 1 μM Pt, 24 h
Protocol: The LLC cells, breast cancer cell line (4T1), and hepatocellular carcinoma cells (CP20) were seeded into 96-well flat bottomed plates (4×10^3 cells per well). Drugs or SACNs were added at equivalent Pt concentrations and incubated for 48 h. Viability was quantified using the Cell-Titer 96 Aqueous One Solution™ reagent. Cellular apoptosis was quantified using Annexin-V-Alexa Fluor™ 488 conjugate and propidium iodide staining followed by FACS. […] After 24 h, the cells were washed with PBS and collected at 0° C. The cells were then treated with Annexin-V-Alexa Fluor 488™ conjugate (Molecular Probes, Invitrogen) and incubated in the dark, at room temperature, for 15 min. The cells were then washed with PBS and incubated with propidium iodide (PI) solution ([…]; Sigma) containing RNase (1 mg/mL; Sigma). The cell suspension were then transferred to FACS tubes and analyzed for Annexin-V/PI staining on a BD FACS Calibur™ instrument. Data were analyzed using a CellQuestPro™ software (BD Biosciences).

[7] = tested on: cisplatin-resistant hepatocellular carcinoma (7404-CP20) cell line; test: Cell viability assay (MTS), platinates; type: cell-based, human; details: 48 h
Protocol: as §2, §3

[8] = single dose, Pt equivalent to 8 mg/kg cisplatin

SMILES | survival [1, 8] | inhibitory activity (cell viability) [2] | inhibitory activity (cell viability) [3] | tumor growth ([1]; multiple dose, 1 and 3 mg/kg, days 9, 11, 13) | survival ([1]; multiple dose, higher dose) | tumor inhibition ([1]; multiple dose, highest doses (3 mg/kg Pt)) | tumor inhibition ([1]; multiple dose, lower doses (1 mg/kg Pt)) | IC50 [2] | kidney cell death (TUNEL) [4] | tumor apoptosis (TUNEL) [4] | maximum tolerated dose (MTD) [5] | apoptosis and necrosis [6] | IC50 [3] | IC50 [7]
N.N.O=C([O-])C1(C(=O)[O-])CCC1.[Pt+2] [carboplatin] | only minor increase in survival over vehicle-treated controls | In neither of these cell lines did carboplatin exert any inhibitory activity at this concentration range | In neither of these cell lines did carboplatin exert any inhibitory activity at this concentration range |  |  |  |  |  |  |  |  |  |  | 
N.N.[Cl][Pt][Cl] [cisplatin, cis-dichlorodiamineplatinum (II)] | only minor increase in survival over vehicle-treated controls |  |  | dose-dependent inhibition of tumor growth | increase survival | identical | greater tumor inhibition as opposed to the higher dose of carboplatin | 4.72 ± 0.016 µM | induced apoptosis of nephrons | apoptosis | 9 mg/kg | more efficacious than carboplatin | 2.91 ± 0.015 µM | 42.84 ± 0.04 µM
